For data set [1], the target named is T1, Alpha-synuclein (Homo sapiens, UniProt P37840). The experiment in a line: Induction of alpha-synuclein (unknown origin) degradation overexpressed in HEK293T cells at 50 to 100 uM incubated for 24 hrs by immunoblot analysis. The format is cell-based. The following applies: dose 50-100 µM.
Data set [2] has as its target T1, Alpha-synuclein. The experiment in a line: Induction of alpha-synuclein (unknown origin) degradation overexpressed in HEK293T cells infected with adenovirus expressing mCherry-EGFP-LC3B incubated for 24 hrs by immunoblot analysis. Format: cell-based. The following applies: for Activity: dose <= 200.0 µM.
Data set [3] is described as follows: Chemical stability of compound in cell culture medium at 50 uM measured for 24 hrs by HPLC analysis. The format is physicochemical.
The subject of the next data set is SH-SY5Y. The experiment in a line: Cytotoxicity against wild-type human SH-SY5Y cells assessed as cell viability upto 200 uM incubated for 24 hrs by CCK8 assay. Format: functional, cell-based.
A further data set has as its system HEK-293T. The experiment in a line: Cytotoxicity against wild-type HEK293T cells assessed as cell viability upto 200 uM incubated for 24 hrs by CCK8 assay. Format: toxicity, cell-based. The note with it: human.
Data set [4] has as its target T2, Microtubule-associated protein 1 light chain 3 beta (Homo sapiens, UniProt Q9GZQ8). The experiment in a line: Binding affinity to biotinylated recombinant LC3B (unknown origin) assessed as dissociation constant by BLI assay.
Data set [5] deals with T1, Alpha-synuclein. The experiment in a line: Binding affinity to biotinylated recombinant alpha-synuclein (unknown origin) assessed as dissociation constant by BLI assay.
A short description of data set [6]: Drug uptake in wild-type HEK293T cells assessed as drug penetration upto 100 uM incubated for 2 hrs by flow cytometry. Format: ADME, cell-based. The following applies: human, hek-293t.
Data set [7] in a line: Drug uptake in wild-type HEK293T cells assessed as drug penetration upto 50 uM incubated for 2 hrs by confocal laser scanning microscopy. Format: ADME, cell-based. The note with it: human, hek-293t.
Data set [8] in a line: Drug localization in HEK293T cells assessed as colocalization of lysosomes at 50 uM incubated for 2 hrs by LyTG staining based confocal laser scanning microscopy. Format: ADME, cell-based. The note with it: human, hek-293t.
For data set [9], the target named is T1, Alpha-synuclein. The experiment in a line: Induction of EGFP-fused alpha-synuclein (unknown origin) degradation overexpressed in HEK293T cells at 50 uM incubated for 2 hrs by confocal laser scanning microscopy. The format is cell-based.
The target of data set [10] is T2, Microtubule-associated protein 1 light chain 3 beta. The experiment in a line: Binding affinity to EGFP-fused LC3B (unknown origin) overexpressed in HEK293T cells at 50 uM incubated for 2 hrs by confocal laser scanning microscopy. The format is cell-based.
Data set [11] in a line: Drug uptake in wild-type HEK293T cells assessed as drug penetration at 50 uM incubated upto 4 hrs by flow cytometry. The note with it: human, hek-293t. Format: ADME, cell-based.

Active and inactive are the calls of the source. The calls are words filed in the database; no cut-off is given here. Residues, ends and D or L forms follow the SMILES beside them. *: point of attachment. RhodamineB = CCN(CC)c1ccc2c(-c3ccccc3C(=O)*)c3ccc(=[N+](CC)CC)cc-3oc2c1

For `CC(C)C[C@H](NC(=O)CNC(=O)[C@H](Cc1ccc(O)cc1)NC(=O)[C@@H](N)C(C)C)C(=O)N[C@@H](CCCNC(=N)N)C(=O)NCC(=O)N[C@H](C(=O)N[C@@H](CO)C(=O)N[C@H](C(=O)N[C@@H](CCCCN)C(=O)NCC(=O)N[C@@H](CO)C(=O)NCC(=O)N[C@@H](CO)C(=O)N[C@@H](CO)C(=O)NCC(=O)NCC(=O)N[C@@H](CC(=O)O)C(=O)N[C@@H](CC(=O)O)C(=O)N[C@@H](CC(=O)O)C(=O)N[C@@H](Cc1c[nH]c2ccccc12)C(=O)N[C@H](C(=O)N[C@@H](Cc1c[nH]cn1)C(=O)N[C@@H](CC(C)C)C(=O)N[C@@H](CO)C(=O)N[C@@H](CO)C(=O)N[C@@H](Cc1ccc(O)cc1)C(=O)NCC(=O)N[C@@H](CCCNC(=N)N)C(=O)N[C@@H](CCCCN)C(=O)N[C@@H](CCCCN)C(=O)N[C@@H](CCCNC(=N)N)C(=O)N[C@@H](CCCNC(=N)N)C(=O)N[C@@H](CCC(N)=O)C(=O)N[C@@H](CCCNC(=N)N)C(=O)N[C@@H](CCCNC(=N)N)C(=O)N[C@@H](CCCNC(=N)N)C(=O)O)[C@@H](C)O)[C@@H](C)O)C(C)C` (H-VYGLRGVSTKGSGSSGGDDDWTHLSSYGRKKRRQRRR-OH), the outcome at Alpha-synuclein [1] was inactive.
Still for that read-out and setting: the value for `CC(C)C[C@H](NC(=O)[C@@H](NC(=O)CN)C(C)C)C(=O)N[C@@H](Cc1ccc(O)cc1)C(=O)N[C@H](C(=O)NCC(=O)N[C@@H](CO)C(=O)N[C@@H](CCCCN)C(=O)N[C@H](C(=O)N[C@@H](CCCNC(=N)N)C(=O)NCC(=O)N[C@@H](CO)C(=O)NCC(=O)N[C@@H](CO)C(=O)N[C@@H](CO)C(=O)NCC(=O)NCC(=O)N[C@@H](CC(=O)O)C(=O)N[C@@H](CC(=O)O)C(=O)N[C@@H](CC(=O)O)C(=O)N[C@@H](Cc1c[nH]c2ccccc12)C(=O)N[C@H](C(=O)N[C@@H](Cc1c[nH]cn1)C(=O)N[C@H](C(=O)N[C@@H](CO)C(=O)N[C@@H](CO)C(=O)N[C@@H](Cc1ccc(O)cc1)C(=O)NCC(=O)N[C@@H](CCCNC(=N)N)C(=O)N[C@@H](CCCCN)C(=O)N[C@@H](CCCCN)C(=O)N[C@@H](CCCNC(=N)N)C(=O)N[C@@H](CCCNC(=N)N)C(=O)N[C@@H](CCC(N)=O)C(=O)N[C@@H](CCCNC(=N)N)C(=O)N[C@@H](CCCNC(=N)N)C(=O)N[C@@H](CCCNC(=N)N)C(=O)O)C(C)C)[C@@H](C)O)[C@@H](C)O)C(C)C` (H-GVLYVGSKTRGSGSSGGDDDWTHVSSYGRKKRRQRRR-OH) was “inactive”.
On to `CC(C)C[C@H](NC(=O)[C@H](Cc1c[nH]cn1)NC(=O)[C@@H](NC(=O)[C@H](Cc1c[nH]c2ccccc12)NC(=O)[C@H](CC(=O)O)NC(=O)[C@H](CC(=O)O)NC(=O)[C@H](CC(=O)O)NC(=O)CNC(=O)CNC(=O)[C@H](CO)NC(=O)[C@H](CO)NC(=O)CNC(=O)[C@H](CO)NC(=O)CNC(=O)[C@H](CCCNC(=N)N)NC(=O)[C@@H](NC(=O)[C@H](CCCCN)NC(=O)[C@H](CO)NC(=O)CNC(=O)[C@@H](NC(=O)[C@H](Cc1ccc(O)cc1)NC(=O)[C@H](CC(C)C)NC(=O)[C@@H](NC(=O)CN)C(C)C)C(C)C)[C@@H](C)O)[C@@H](C)O)C(=O)N[C@@H](CO)C(=O)N[C@@H](CO)C(=O)N[C@@H](CCCNC(=N)N)C(=O)N[C@@H](CCCNC(=N)N)C(=O)N[C@@H](CCCNC(=N)N)C(=O)N[C@@H](CCCNC(=N)N)C(=O)N[C@@H](CCCNC(=N)N)C(=O)N[C@@H](CCCNC(=N)N)C(=O)N[C@@H](CCCNC(=N)N)C(=O)O` (H-GVLYVGSKTRGSGSSGGDDDWTHLSSRRRRRRR-OH), for which, at Alpha-synuclein [2], it took 56.8 µM to reach half-maximal degradation (DC50) and the Activity entry was “Dose-Dependent Effect”. For the same molecule, the Stability entry in data set [3] is reported as “Stable”. Also, the outcome with SH-SY5Y was inactive. Further, in the data set on HEK-293T, the Activity result is “Non-Toxic”.
`CC[C@H](C)[C@H](NC(=O)[C@H](CCC(=O)O)NC(=O)[C@@H](NC(=O)[C@H](Cc1ccccc1)NC(=O)[C@H](CO)NC(=O)[C@H](CC(=O)O)NC(=O)[C@H](CCC(=O)O)NC(=O)[C@H](CO)NC(=O)[C@H](CO)NC(=O)CNC(=O)[C@H](CO)NC(=O)CNC(=O)[C@H](CO)NC(=O)CNC(=O)[C@H](CCCNC(=N)N)NC(=O)[C@@H](NC(=O)[C@H](CCCCN)NC(=O)[C@H](CO)NC(=O)CNC(=O)[C@@H](NC(=O)[C@H](Cc1ccc(O)cc1)NC(=O)[C@H](CC(C)C)NC(=O)[C@@H](NC(=O)CN)C(C)C)C(C)C)[C@@H](C)O)C(C)C)C(=O)N[C@@H](CCCNC(=N)N)C(=O)N[C@@H](CCSC)C(=O)N[C@@H](Cc1ccc(O)cc1)C(=O)NCC(=O)N[C@@H](CCCNC(=N)N)C(=O)N[C@@H](CCCCN)C(=O)N[C@@H](CCCCN)C(=O)N[C@@H](CCCNC(=N)N)C(=O)N[C@@H](CCCNC(=N)N)C(=O)N[C@@H](CCC(N)=O)C(=O)N[C@@H](CCCNC(=N)N)C(=O)N[C@@H](CCCNC(=N)N)C(=O)N[C@@H](CCCNC(=N)N)C(=O)O` (H-GVLYVGSKTRGSGSGSSEDSFVEIRMYGRKKRRQRRR-OH) yielded a DC50 on Alpha-synuclein [2] of 140 µM. Also, the figures for the Activity entry on Alpha-synuclein [2] and in the data set with HEK-293T were “Dose-Dependent Effect” and “Non-Toxic”, respectively. Further, the Kd in data set [4] is 17.2 µM; at Alpha-synuclein [5], 41.6 µM. In data set [3], the Stability entry was “Stable”. Moreover, the outcome in the data set with SH-SY5Y was inactive.
`CCN(CC)c1ccc2c(-c3ccccc3C(=O)NCC(=O)N[C@H](C(=O)N[C@@H](CC(C)C)C(=O)N[C@@H](Cc3ccc(O)cc3)C(=O)N[C@H](C(=O)NCC(=O)N[C@@H](CO)C(=O)N[C@@H](CCCCN)C(=O)N[C@H](C(=O)N[C@@H](CCCNC(=N)N)C(=O)NCC(=O)N[C@@H](CO)C(=O)NCC(=O)N[C@@H](CO)C(=O)N[C@@H](CO)C(=O)NCC(=O)NCC(=O)N[C@@H](CC(=O)O)C(=O)N[C@@H](CC(=O)O)C(=O)N[C@@H](CC(=O)O)C(=O)N[C@@H](Cc3c[nH]c4ccccc34)C(=O)N[C@H](C(=O)N[C@@H](Cc3c[nH]cn3)C(=O)N[C@@H](CC(C)C)C(=O)N[C@@H](CO)C(=O)N[C@@H](CO)C(=O)N[C@@H](CCCNC(=N)N)C(=O)N[C@@H](CCCNC(=N)N)C(=O)N[C@@H](CCCNC(=N)N)C(=O)N[C@@H](CCCNC(=N)N)C(=O)N[C@@H](CCCNC(=N)N)C(=O)N[C@@H](CCCNC(=N)N)C(=O)N[C@@H](CCCNC(=N)N)C(=O)O)[C@@H](C)O)[C@@H](C)O)C(C)C)C(C)C)c3ccc(=[N+](CC)CC)cc-3oc2c1.[Cl-]` (RhodamineB-GVLYVGSKTRGSGSSGGDDDWTHLSSRRRRRRR-OH): the Drug uptake entry in data set [6] and in [7] was “Active” each time.
In the case of `CCN(CC)c1ccc2c(-c3ccccc3C(=O)NCC(=O)N[C@H](C(=O)N[C@@H](CC(C)C)C(=O)N[C@@H](Cc3ccc(O)cc3)C(=O)N[C@H](C(=O)NCC(=O)N[C@@H](CO)C(=O)N[C@@H](CCCCN)C(=O)N[C@H](C(=O)N[C@@H](CCCNC(=N)N)C(=O)NCC(=O)N[C@@H](CO)C(=O)NCC(=O)N[C@@H](CO)C(=O)N[C@@H](CO)C(=O)NCC(=O)NCC(=O)N[C@@H](CC(=O)O)C(=O)N[C@@H](CC(=O)O)C(=O)N[C@@H](CC(=O)O)C(=O)N[C@@H](Cc3c[nH]c4ccccc34)C(=O)N[C@H](C(=O)N[C@@H](Cc3c[nH]cn3)C(=O)N[C@@H](CC(C)C)C(=O)N[C@@H](CO)C(=O)N[C@@H](CO)C(=O)N[C@@H](Cc3ccc(O)cc3)C(=O)NCC(=O)N[C@@H](CCCNC(=N)N)C(=O)N[C@@H](CCCCN)C(=O)N[C@@H](CCCCN)C(=O)N[C@@H](CCCNC(=N)N)C(=O)N[C@@H](CCCNC(=N)N)C(=O)N[C@@H](CCC(N)=O)C(=O)N[C@@H](CCCNC(=N)N)C(=O)N[C@@H](CCCNC(=N)N)C(=O)N[C@@H](CCCNC(=N)N)C(=O)O)[C@@H](C)O)[C@@H](C)O)C(C)C)C(C)C)c3ccc(=[N+](CC)CC)cc-3oc2c1.[Cl-]` (RhodamineB-GVLYVGSKTRGSGSSGGDDDWTHLSSYGRKKRRQRRR-OH), the Drug uptake entry in [8], in data set [11], in data set [6] and in [7] was “Active” in each case. Besides, the result (on Alpha-synuclein [9]; in data set [10]) was Active.
`CC[C@H](C)[C@H](NC(=O)[C@H](Cc1ccc(O)cc1)NC(=O)[C@H](CC(=O)O)NC(=O)[C@H](CCC(=O)O)NC(=O)[C@H](CO)NC(=O)[C@H](CO)NC(=O)[C@H](C)NC(=O)[C@H](CO)NC(=O)[C@H](CO)NC(=O)CNC(=O)[C@H](CO)NC(=O)CNC(=O)[C@H](CCCNC(=N)N)NC(=O)[C@@H](NC(=O)[C@H](CCCCN)NC(=O)[C@H](CO)NC(=O)CNC(=O)[C@@H](NC(=O)[C@H](Cc1ccc(O)cc1)NC(=O)[C@H](CC(C)C)NC(=O)[C@@H](NC(=O)CN)C(C)C)C(C)C)[C@@H](C)O)C(=O)N[C@H](C(=O)N[C@H](C(=O)N[C@@H](CC(C)C)C(=O)N1CCC[C@H]1C(=O)N[C@@H](Cc1ccc(O)cc1)C(=O)NCC(=O)N[C@@H](CCCNC(=N)N)C(=O)N[C@@H](CCCCN)C(=O)N[C@@H](CCCCN)C(=O)N[C@@H](CCCNC(=N)N)C(=O)N[C@@H](CCCNC(=N)N)C(=O)N[C@@H](CCC(N)=O)C(=O)N[C@@H](CCCNC(=N)N)C(=O)N[C@@H](CCCNC(=N)N)C(=O)N[C@@H](CCCNC(=N)N)C(=O)O)[C@@H](C)CC)[C@@H](C)CC` (H-GVLYVGSKTRGSGSSASSEDYIIILPYGRKKRRQRRR-OH) yielded a DC50 at Alpha-synuclein [2] of 73.8 µM. Further, the Activity result at Alpha-synuclein [2] is “Dose-Dependent Effect”; in the data set with HEK-293T it was “Non-Toxic”. In addition, the Kd in data set [4] amounted to 15.2 µM; on Alpha-synuclein [5], 25.3 µM. Also, the Stability result in [3] is given as “Stable”. The outcome in the data set with SH-SY5Y was inactive.

The values above are taken from ChEMBL document CHEMBL5321295, “Targeted Degradation of Alpha-Synuclein by Autophagosome-Anchoring Chimera Peptides” (J Med Chem, 2023).
